Data published in PubChem BioAssay (NCI).
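How tested: cells in 96-well plates exposed to compound for 48 hours at five concentrations. At the GI50, growth is halved. At the TGI there is no net growth.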

Columns and labels:
Assay in all cases: NCI anticancer screen, dose series, 48 h
786-0 renal = tested on: 786-0 renal
A498 renal = tested on: A498 renal
A549 NSCLC = tested on: A549 NSCLC
ACHN renal = tested on: ACHN renal
BT-549 breast = tested on: BT-549 breast
CAKI-1 renal = tested on: CAKI-1 renal
CCRF-CEM leukemia = tested on: CCRF-CEM leukemia
COLO 205 colon = tested on: COLO 205 colon
DU-145 prostate = tested on: DU-145 prostate
EKVX NSCLC = tested on: EKVX NSCLC
HCC-2998 colon = tested on: HCC-2998 colon
HCT-116 colon = tested on: HCT-116 colon
HCT-15 colon = tested on: HCT-15 colon
HL-60(TB) leukemia = tested on: HL-60(TB) leukemia
HOP-62 NSCLC = tested on: HOP-62 NSCLC
HOP-92 NSCLC = tested on: HOP-92 NSCLC
HS 578T breast = tested on: HS 578T breast
HT29 colon = tested on: HT29 colon
IGROV1 ovarian = tested on: IGROV1 ovarian
K-562 leukemia = tested on: K-562 leukemia
KM12 colon = tested on: KM12 colon
LOX IMVI melanoma = tested on: LOX IMVI melanoma
M14 melanoma = tested on: M14 melanoma
MALME-3M melanoma = tested on: MALME-3M melanoma
MCF7 breast = tested on: MCF7 breast
MDA-MB-231 breast = tested on: MDA-MB-231 breast
MDA-MB-435 = tested on: MDA-MB-435
MOLT-4 leukemia = tested on: MOLT-4 leukemia
NCI-H226 lung = tested on: NCI-H226 lung
NCI-H23 lung = tested on: NCI-H23 lung
NCI-H460 lung = tested on: NCI-H460 lung
NCI-H522 lung = tested on: NCI-H522 lung
NCI/ADR-RES ovarian = tested on: NCI/ADR-RES ovarian
OVCAR-3 ovarian = tested on: OVCAR-3 ovarian
OVCAR-4 ovarian = tested on: OVCAR-4 ovarian
OVCAR-5 ovarian = tested on: OVCAR-5 ovarian
OVCAR-8 ovarian = tested on: OVCAR-8 ovarian
PC-3 prostate = tested on: PC-3 prostate
RPMI-8226 leukemia = tested on: RPMI-8226 leukemia
RXF 393 renal = tested on: RXF 393 renal
SF-268 CNS = tested on: SF-268 CNS
SF-295 CNS = tested on: SF-295 CNS
SF-539 CNS = tested on: SF-539 CNS
SK-MEL-2 melanoma = tested on: SK-MEL-2 melanoma
SK-MEL-28 melanoma = tested on: SK-MEL-28 melanoma
SK-MEL-5 melanoma = tested on: SK-MEL-5 melanoma
SK-OV-3 ovarian = tested on: SK-OV-3 ovarian
SN12C renal = tested on: SN12C renal
SNB-75 CNS = tested on: SNB-75 CNS
SR leukemia = tested on: SR leukemia
SW-620 colon = tested on: SW-620 colon
T-47D breast = tested on: T-47D breast
U251 CNS = tested on: U251 CNS
UACC-257 melanoma = tested on: UACC-257 melanoma
UACC-62 melanoma = tested on: UACC-62 melanoma
UO-31 renal = tested on: UO-31 renal

Compound: O=C(/C=C/c1ccc(C(F)(F)F)cc1)c1ccc(Nc2nc(NCCO)nc(Nc3ccc(Cl)cc3)n2)cc1
- GI50 (786-0 renal): 2.25 µM
- TGI (786-0 renal): 5.36 µM
- GI50 (A498 renal): 1.67 µM
- TGI (A498 renal): 12.6 µM
- GI50 (A549 NSCLC): 3.48 µM
- TGI (A549 NSCLC): 13.5 µM
- GI50 (ACHN renal): 4.81 µM
- TGI (ACHN renal): 17 µM
- GI50 (BT-549 breast): 3.07 µM
- TGI (BT-549 breast): 7.97 µM
- GI50 (CAKI-1 renal): 5.12 µM
- TGI (CAKI-1 renal): 18.8 µM
- GI50 (CCRF-CEM leukemia): 2.75 µM
- TGI (CCRF-CEM leukemia): 8.24 µM
- GI50 (COLO 205 colon): 4.8 µM
- TGI (COLO 205 colon): 17.3 µM
- GI50 (DU-145 prostate): 6.08 µM
- TGI (DU-145 prostate): 18.7 µM
- GI50 (EKVX NSCLC): 3.41 µM
- TGI (EKVX NSCLC): 14.5 µM
- GI50 (HCC-2998 colon): 2.93 µM
- TGI (HCC-2998 colon): 8.17 µM
- GI50 (HCT-116 colon): 1.48 µM
- TGI (HCT-116 colon): 2.83 µM
- GI50 (HCT-15 colon): 2.08 µM
- TGI (HCT-15 colon): 5.92 µM
- GI50 (HL-60(TB) leukemia): 12.2 µM
- TGI (HL-60(TB) leukemia): 51.8 µM
- GI50 (HOP-62 NSCLC): 8.55 µM
- TGI (HOP-62 NSCLC): 22 µM
- GI50 (HOP-92 NSCLC): 5.39 µM
- TGI (HOP-92 NSCLC): 49.4 µM
- GI50 (HS 578T breast): 2.82 µM
- TGI (HS 578T breast): 15.6 µM
- GI50 (HT29 colon): 2.32 µM
- TGI (HT29 colon): 6.37 µM
- GI50 (IGROV1 ovarian): 4.92 µM
- TGI (IGROV1 ovarian): 16.2 µM
- GI50 (K-562 leukemia): 2.83 µM
- TGI (K-562 leukemia): > 100 µM
- GI50 (KM12 colon): 2.13 µM
- TGI (KM12 colon): 4.84 µM
- GI50 (LOX IMVI melanoma): 1.66 µM
- TGI (LOX IMVI melanoma): 3.22 µM
- GI50 (M14 melanoma): 3.5 µM
- TGI (M14 melanoma): 13.4 µM
- GI50 (MALME-3M melanoma): 13.9 µM
- TGI (MALME-3M melanoma): 28.5 µM
- GI50 (MCF7 breast): 1.49 µM
- TGI (MCF7 breast): 5.56 µM
- GI50 (MDA-MB-231 breast): 4.21 µM
- TGI (MDA-MB-231 breast): 16.1 µM
- GI50 (MDA-MB-435): 3.46 µM
- TGI (MDA-MB-435): 12.8 µM
- GI50 (MOLT-4 leukemia): 3.56 µM
- TGI (MOLT-4 leukemia): 12.6 µM
- GI50 (NCI-H226 lung): 4.29 µM
- TGI (NCI-H226 lung): 18.7 µM
- GI50 (NCI-H23 lung): 10.7 µM
- TGI (NCI-H23 lung): 26.2 µM
- GI50 (NCI-H460 lung): 4 µM
- TGI (NCI-H460 lung): 13.6 µM
- GI50 (NCI-H522 lung): 7.82 µM
- TGI (NCI-H522 lung): 23.6 µM
- GI50 (NCI/ADR-RES ovarian): 5.58 µM
- TGI (NCI/ADR-RES ovarian): 26 µM
- GI50 (OVCAR-3 ovarian): 2.75 µM
- TGI (OVCAR-3 ovarian): 8.12 µM
- GI50 (OVCAR-4 ovarian): 4.14 µM
- TGI (OVCAR-4 ovarian): 15.5 µM
- GI50 (OVCAR-5 ovarian): 5.93 µM
- TGI (OVCAR-5 ovarian): 18.8 µM
- GI50 (OVCAR-8 ovarian): 5.66 µM
- TGI (OVCAR-8 ovarian): 31.3 µM
- GI50 (PC-3 prostate): 2.99 µM
- TGI (PC-3 prostate): 15 µM
- GI50 (RPMI-8226 leukemia): 1.56 µM
- TGI (RPMI-8226 leukemia): 5.43 µM
- GI50 (RXF 393 renal): 1.82 µM
- TGI (RXF 393 renal): 4.16 µM
- GI50 (SF-268 CNS): 5.05 µM
- TGI (SF-268 CNS): 18.7 µM
- GI50 (SF-295 CNS): 3.98 µM
- TGI (SF-295 CNS): 14.7 µM
- GI50 (SF-539 CNS): 2.39 µM
- TGI (SF-539 CNS): 6.62 µM
- GI50 (SK-MEL-2 melanoma): 11.7 µM
- TGI (SK-MEL-2 melanoma): 24.5 µM
- GI50 (SK-MEL-28 melanoma): 5.88 µM
- TGI (SK-MEL-28 melanoma): 18.3 µM
- GI50 (SK-MEL-5 melanoma): 14 µM
- TGI (SK-MEL-5 melanoma): 29.6 µM
- GI50 (SK-OV-3 ovarian): 13.4 µM
- TGI (SK-OV-3 ovarian): 34.3 µM
- GI50 (SN12C renal): 5.53 µM
- TGI (SN12C renal): 17.5 µM
- GI50 (SNB-75 CNS): 2.05 µM
- TGI (SNB-75 CNS): 8.71 µM
- GI50 (SR leukemia): 1.95 µM
- TGI (SR leukemia): 8.74 µM
- GI50 (SW-620 colon): 2.17 µM
- TGI (SW-620 colon): 5.04 µM
- GI50 (T-47D breast): 3.4 µM
- TGI (T-47D breast): 26.6 µM
- GI50 (U251 CNS): 2.18 µM
- TGI (U251 CNS): 5.57 µM
- GI50 (UACC-257 melanoma): 10.1 µM
- TGI (UACC-257 melanoma): 31.2 µM
- GI50 (UACC-62 melanoma): 6.32 µM
- TGI (UACC-62 melanoma): 19.5 µM
- GI50 (UO-31 renal): 1.75 µM
- TGI (UO-31 renal): 4.39 µM
